The results in this text go back to ChEMBL document CHEMBL1681726, “Discovery of orally available tetrahydroquinoline-based glucocorticoid receptor agonists” (Bioorg Med Chem Lett, 2011).

Some results are limits rather than exact numbers.

A short description of data set [1]: Apparent half life in Sprague-Dawley rat at 30 mg/kg, po. It is filed as ADME, organism-based. Details: dose 30 mg/kg, route oral. The note with it: in vivo.
A further data set relates to Mus musculus. The data set can be described thus: Antiinflammatory activity in po dosed mouse assessed as carrageenan-induced hind paw edema measured after 3 hrs post dose. Format: functional. Background: Carrageenan injected into the paw causes an acute inflammation.
Data set [2] is described as follows: Cmax in Sprague-Dawley rat at 30 mg/kg, po. Format: ADME, organism-based. Details: dose 30 mg/kg, route oral. The note with it: in vivo.
The target of the next data set is T1, Androgen receptor (Homo sapiens, UniProt P10275).
T1 sequence (P10275 whole entry): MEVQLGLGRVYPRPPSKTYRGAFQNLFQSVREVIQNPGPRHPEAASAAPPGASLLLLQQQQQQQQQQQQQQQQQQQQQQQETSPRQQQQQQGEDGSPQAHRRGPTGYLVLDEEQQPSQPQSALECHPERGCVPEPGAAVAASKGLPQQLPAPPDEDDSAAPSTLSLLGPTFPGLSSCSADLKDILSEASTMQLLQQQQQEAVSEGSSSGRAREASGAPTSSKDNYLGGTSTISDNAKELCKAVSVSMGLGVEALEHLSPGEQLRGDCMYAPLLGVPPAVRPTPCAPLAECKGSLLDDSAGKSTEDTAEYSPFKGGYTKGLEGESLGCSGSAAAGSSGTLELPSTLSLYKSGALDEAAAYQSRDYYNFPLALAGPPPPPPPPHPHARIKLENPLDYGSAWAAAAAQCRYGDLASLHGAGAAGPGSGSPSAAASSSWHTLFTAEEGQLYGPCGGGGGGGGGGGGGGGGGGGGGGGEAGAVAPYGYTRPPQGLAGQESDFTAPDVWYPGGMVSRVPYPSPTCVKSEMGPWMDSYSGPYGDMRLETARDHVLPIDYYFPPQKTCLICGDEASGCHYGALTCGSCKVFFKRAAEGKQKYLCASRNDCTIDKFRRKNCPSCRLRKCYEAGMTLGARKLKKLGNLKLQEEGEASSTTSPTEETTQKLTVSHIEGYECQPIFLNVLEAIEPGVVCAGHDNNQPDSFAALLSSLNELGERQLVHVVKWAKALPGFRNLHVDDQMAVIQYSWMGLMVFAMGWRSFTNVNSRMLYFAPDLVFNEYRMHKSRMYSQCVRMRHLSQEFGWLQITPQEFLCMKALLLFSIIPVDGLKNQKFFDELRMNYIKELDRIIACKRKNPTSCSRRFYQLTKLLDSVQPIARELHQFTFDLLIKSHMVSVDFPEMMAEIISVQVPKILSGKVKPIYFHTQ
The data set can be described thus: Binding affinity to AR.

The next data set deals with T2, Glucocorticoid receptor (Homo sapiens, UniProt P04150).
T2 sequence (P04150 whole entry): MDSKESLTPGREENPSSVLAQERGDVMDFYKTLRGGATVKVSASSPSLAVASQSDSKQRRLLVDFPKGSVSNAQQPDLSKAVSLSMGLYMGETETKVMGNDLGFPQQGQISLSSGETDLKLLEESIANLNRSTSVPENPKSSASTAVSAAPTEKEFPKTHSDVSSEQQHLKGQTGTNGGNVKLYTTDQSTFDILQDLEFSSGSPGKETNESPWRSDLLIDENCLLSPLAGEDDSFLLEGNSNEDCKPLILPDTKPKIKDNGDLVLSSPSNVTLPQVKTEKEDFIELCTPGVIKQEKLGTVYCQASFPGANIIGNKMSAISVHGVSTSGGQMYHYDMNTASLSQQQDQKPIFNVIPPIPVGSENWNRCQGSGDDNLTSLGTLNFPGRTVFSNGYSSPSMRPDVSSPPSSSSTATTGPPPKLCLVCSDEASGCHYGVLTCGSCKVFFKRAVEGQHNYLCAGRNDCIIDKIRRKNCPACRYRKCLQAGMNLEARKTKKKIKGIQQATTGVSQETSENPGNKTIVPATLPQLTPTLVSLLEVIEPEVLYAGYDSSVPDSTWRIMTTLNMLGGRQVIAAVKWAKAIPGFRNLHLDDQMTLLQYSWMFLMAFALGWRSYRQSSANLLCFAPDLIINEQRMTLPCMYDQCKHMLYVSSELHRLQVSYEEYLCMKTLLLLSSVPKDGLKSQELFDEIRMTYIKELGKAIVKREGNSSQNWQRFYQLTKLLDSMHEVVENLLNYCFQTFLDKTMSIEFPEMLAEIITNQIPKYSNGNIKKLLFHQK
Nature of the data set: Displacement of radiolabeled Dexamethasone from GR.

Data set [3] in a line: Selectivity ratio of Ki for GR to Ki for AR.
Data set [4] is described as follows: Selectivity ratio of Ki for GR to Ki for MR.
Data set [5] in a line: Selectivity ratio of Ki for GR to Ki for PR.
In a further data set the target is T3, Progesterone receptor (Homo sapiens, UniProt P06401).
T3 sequence (P06401 whole entry): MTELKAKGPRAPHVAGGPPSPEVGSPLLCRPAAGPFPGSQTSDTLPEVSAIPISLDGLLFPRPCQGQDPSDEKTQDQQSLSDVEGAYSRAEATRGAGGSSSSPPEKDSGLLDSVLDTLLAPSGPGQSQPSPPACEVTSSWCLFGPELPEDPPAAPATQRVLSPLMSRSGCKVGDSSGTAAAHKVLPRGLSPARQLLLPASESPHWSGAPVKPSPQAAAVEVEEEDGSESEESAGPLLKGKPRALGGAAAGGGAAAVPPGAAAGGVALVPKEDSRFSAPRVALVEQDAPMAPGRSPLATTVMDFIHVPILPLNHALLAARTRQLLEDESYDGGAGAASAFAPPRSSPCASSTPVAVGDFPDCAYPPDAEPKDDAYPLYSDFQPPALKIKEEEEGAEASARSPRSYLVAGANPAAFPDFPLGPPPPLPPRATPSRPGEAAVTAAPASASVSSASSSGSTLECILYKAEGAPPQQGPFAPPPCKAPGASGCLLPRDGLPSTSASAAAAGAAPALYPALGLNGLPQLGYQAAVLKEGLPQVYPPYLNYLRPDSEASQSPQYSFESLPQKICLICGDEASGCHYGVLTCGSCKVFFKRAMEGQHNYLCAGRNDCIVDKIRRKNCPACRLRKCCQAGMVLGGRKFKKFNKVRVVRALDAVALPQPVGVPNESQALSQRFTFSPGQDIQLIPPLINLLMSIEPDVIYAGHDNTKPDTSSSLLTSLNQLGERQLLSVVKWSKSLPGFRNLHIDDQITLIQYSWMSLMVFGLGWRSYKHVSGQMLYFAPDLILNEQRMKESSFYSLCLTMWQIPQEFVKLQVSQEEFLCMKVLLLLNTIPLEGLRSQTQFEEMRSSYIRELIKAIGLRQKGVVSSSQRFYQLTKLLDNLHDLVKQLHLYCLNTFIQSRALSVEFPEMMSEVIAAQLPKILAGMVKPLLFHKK
Nature of the data set: Binding affinity to PR.

A word on the half-life: it is how long it takes for the measured level to halve. The term ED50 denotes the dose at which the effect has come halfway, by size or by number of responders. What is called Cmax is the peak of the concentration-time curve. As usually defined, the Ki is a dissociation constant, usually derived from enzyme kinetics or from competition with a known ligand. A higher Ki goes with weaker binding. As for `C[C@H]1c2c(cc(F)c(-c3cccc4cc[nH]c34)c2F)NC(C)(C)[C@@H]1O` (racemic), the half-life in data set [1] was 3.2 h. Moreover, the ED50 with Mus musculus came to 6.6 mg/kg. In data set [2], this compound registered a Cmax of 3.6 µg/mL. Also, the Ki turned out to be 1.43 µM on Androgen receptor, 0.0025 µM at Glucocorticoid receptor and 2.1 µM at Progesterone receptor. The Ratio Ki in [3], in data set [4] and in data set [5] was greater than 500 each time.
